Legend:
[1] = target: T1, RNase A (Bos taurus, UniProt P61823); experiment: RNA cleavage assay with total RNA from HeLa cells, agarose gel imaging; assay type: biochemical, bovine; design: Ribonuclease A (Type II-A) from bovine pancreas; purchased Sigma-Aldrich Korea; host or cells: bovine pancreas; conditions: RNase 0.7 μg/ml, agarose gel image analysis, read-out: IC50 for RNase A activity inhibition
T1 sequence (P61823 27-150): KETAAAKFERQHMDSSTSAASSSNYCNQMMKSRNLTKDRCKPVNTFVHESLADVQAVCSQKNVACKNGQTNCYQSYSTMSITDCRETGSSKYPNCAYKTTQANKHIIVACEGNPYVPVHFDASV
Experimental: The analysis of RNase inhibitory activity of Fv antibodies and synthetic peptides was performed using RNA samples extracted from HeLa cells as follows: (1) Mixing the RNA sample extracted from HeLa cells (600 ng) with 87.5 nM-5.6 μM under conditions of 37° C. for 30 minutes, (2) Electrophoresis on a 1% agarose gel at 90 V for 40 minutes. The estimation of RNase inhibitory activity was carried out by gel imaging of the cleaved RNA using a ChemiDoc XPS (Bio-Rad, CA, USA).
(§1) Using RNA samples extracted from HeLa cells, the RNase inhibitory activity of the synthesized peptides was estimated. The RNase inhibitory activity was assessed using agarose gel imaging of the cleaved RNA. To optimize the RNase concentration for the RNase inhibition assay, total RNA was treated with RNase A (600 ng), with RNase A concentrations ranging from 5.7 ng/ml to 3.6 μg/ml, and the cleaved RNA bands were observed after treatment with ETBR (ethidium bromide). […] The RNase concentration for inhibition analysis was determined to be 0.7 μg/ml, with RNase concentrations above 3.6 μg/ml. The inhibition analysis was performed by mixing total RNA from HeLa cells with RNase (0.7 μg/ml) and Fv-antibody at a concentration of 10 μM, resulting in the observation that the entire RNA was completely cleaved into small RNA bands in the absence of the Fv-antibody. […] The optimal concentration of the Fv-antibody for RNase inhibition was determined by the cleavage reaction with total RNA in the concentration range of 87.5 nM to 5.6 μM for Fv-antibodies (Fv-1, Fv-2, Fv-3).
The analysis of RNase inhibitory activity of Fv antibodies and synthetic peptides was performed using RNA samples extracted from HeLa cells as follows: (1) A mixture of RNA samples extracted from HeLa cells (600 ng) was prepared at concentrations of 87.5 nM-5.6 μM and incubated at 37° C. for 30 minutes; (2) Electrophoresis was conducted in a 1% agarose gel under 90 V for 40 minutes. The estimation of RNase inhibitory activity was carried out by gel imaging of the cleaved RNA using a ChemiDoc XPS (Bio-Rad, CA, USA).
as §1, with “the” for “the concentration”

[2] = target: T1, RNase A; experiment: RNase activity test kit, modified Taq-man RNA probe analysis (ab273299); assay type: biochemical; design: purchased Abcam ab273299; conditions: inhibitor 1 μM; after 60 minutes; positive control (no inhibitor) = 100%
Experimental: The activity of RNase A, which degrades RNA, was evaluated using specially designed RNA probes. This RNase A analysis was performed using a commercial RNase activity test kit based on a modified Taq-man probe analysis (ab273299) from Abcam (Cambridge, UK). To compare inhibitory activity, three synthetic peptides (peptide-1, peptide-2, peptide-3) and three expressed Fv-antibodies (Fv-1, Fv-2, and Fv-3) were compared using two types of commercially available RNase inhibitors from Biofact™ (Daejeon, South Korea) and two types of RNaseOUT™ from Thermofisher (USA). The probes for the RNase inhibition analysis contained RNA probes with fluorescent dyes and quenching materials at each end of the RNA sequence. […] To estimate the RNase A inhibitory activity by the three synthesized peptides, each peptide was treated at a concentration of 1 μM using the analysis kit, and RNase activity was measured. The positive control was prepared to have an RNase reaction without an inhibitor, and the negative control was prepared to have an RNase reaction without the RNA probe. […] The RNase A inhibitory activity of the three synthesized peptides was analyzed after treating each peptide at a concentration range of 100 μM to 1 μM in the assay kit. […] The RNase A inhibitory activity of the three expressed Fv-antibodies was analyzed after treating each peptide at a concentration range of 100 μM to 1 μM in the analysis kit.
The activity of RNase A, which degrades RNA, was evaluated using specially designed RNA probes. This RNase A analysis was performed using a commercial RNase activity test kit based on a modified Taq-man probe analysis (ab273299) from Abcam (Cambridge, UK). For the comparison of inhibitory activity, three synthetic peptides (Peptide-1, Peptide-2, Peptide-3) and three expressed Fv-antibodies (Fv-1, Fv-2, and Fv-3) were compared using two types of commercially available RNase inhibitors from Biofact™ (Daejeon, South Korea) and two types of RNaseOUT™ from Thermofisher (USA). The probes for the RNase inhibition analysis contain RNA probes with fluorescent dyes and fluorescent quenchers at each end of the RNA nucleotide sequence.
To estimate the RNase A inhibitory activity of the three synthesized peptides, each peptide was treated at a concentration of 1 μM using an assay kit, and the RNase activity was evaluated. The positive control was prepared to have an RNase reaction without the inhibitor, while the negative control was prepared to have an RNase reaction without the RNA probe.
The RNase A inhibitory activity of the three synthesized peptides was analyzed after treating each peptide at a concentration range of 100 μM to 1 μM with the RNase A from the assay kit.

IC50 [1] [nM] | relative inhibition level / reduction of RNase A activity [2] [%] | Substance
257 | 35.8 | Inhibitor-1 [reference compound]
381 | 27.2 | Inhibitor-2 [reference compound]

— patent US20260217863A1, “ANTIBODY OR PEPTIDE BINDING SPECIFICALLY TO RNASE A, IMMUNOASSAY DEVICE AND METHOD FOR DETECTING RNASE A, AND METHOD FOR COLLECTING RNASE A” (UIF (University Industry Foundation), Yonsei University, priority 2022, published 2026)
